Reference: article PMC6008465 (British Journal of Cancer, 2018)

Test system: patients with advanced solid tumours
Test: Phase 1 Part A (dose escalation): safety, DLT, MTD
Format: in vivo, human
Method: The primary objectives of this phase 1 study were to evaluate the safety, tolerability, and MTD of once-weekly (Schedule I) and twice-weekly (Schedule II) dosing. Secondary objectives included evaluation of the PK profile of E6201. […] Toxicity was managed by dose interruption, reduction, and/or discontinuation. Only Cycle 1 adverse events (AEs) were evaluable as DLTs. Based on AEs reported at 480 mg/m^2 and 400 mg/m^2, the protocol was amended to include up to 6 additional toxicity-evaluable patients at 320 mg/m^2, to confirm this as the MTD. All ongoing patients could continue at 320 mg/m^2, regardless of initial starting dose.
Safety was assessed by monitoring AEs, serious AEs (SAEs), laboratory parameters, vital signs, 12-lead electrocardiograms (ECGs), Eastern Cooperative Oncology Group performance status, and symptom-directed physical and neurologic examination findings. AEs were graded by investigators based on the National Cancer Institute Common Terminology Criteria for Adverse Events, version 3.[16]

In the case of `CCNc1cc(O)c2c(c1)/C=C/C[C@H](O)[C@H](O)C(=O)/C=C\[C@@H](C)[C@H](C)OC2=O` [E6201, (3S,4R,5Z,8S,9S,11E)-14-(ethylamino)-8,9,16-trihydroxy-3,4-dimethyl-3,4,9,19-tetrahydro-1H-2-benzoxacyclotetradecine-1,7 (8H)-dione], the “Patients who discontinued treatment due to SAEs” value (Part A) is reported as “Two”, the “Patients with grade 1/2 eye disorders” value (Part A (160 and 320 mg/m^2 groups)) is reported as “two” and the “Nausea TEAE, patients” value (Part A overall, 9 patients) is reported as 36%. The “Abdominal pain TEAE incidence, All grades” value (Part A, 20 mg/m^2 (n=4)) was 1 (25.0) n (%), the “Abdominal pain TEAE incidence, G≥3” value (Part A, 20 mg/m^2 (n=4)) was 0 n (%) and the “Constipation TEAE incidence, All grades” value (Part A, 20 mg/m^2 (n=4)) was 1 (25.0) n (%). For the same compound, the “Constipation TEAE incidence, G≥3” value (Part A, 20 mg/m^2 (n=4)) was 0 n (%), the “Decreased appetite TEAE incidence, All grades” value (Part A, 20 mg/m^2 (n=4)) was 1 (25.0) n (%) and the “Decreased appetite TEAE incidence, G≥3” value (Part A, 20 mg/m^2 (n=4)) was 0 n (%). For the same compound, the “Fatigue TEAE incidence, All grades” value (Part A, 20 mg/m^2 (n=4)) was 1 (25.0) n (%), the “Fatigue TEAE incidence, G≥3” value (Part A, 20 mg/m^2 (n=4)) was 0 n (%) and the “Hypokalemia TEAE incidence, All grades” value (Part A, 20 mg/m^2 (n=4)) was 1 (25.0) n (%). The “Hypokalemia TEAE incidence, G≥3” value (Part A, 20 mg/m^2 (n=4)) was 0 n (%), the “Nausea TEAE incidence, All grades” value (Part A, 20 mg/m^2 (n=4)) was 1 (25.0) n (%) and the “Nausea TEAE incidence, G≥3” value (Part A, 20 mg/m^2 (n=4)) was 0 n (%). For the same compound, the “Peripheral edema TEAE incidence, All grades” value (Part A, 20 mg/m^2 (n=4)) was 1 (25.0) n (%), the “Peripheral edema TEAE incidence, G≥3” value (Part A, 20 mg/m^2 (n=4)) was 0 n (%) and the “Vomiting TEAE incidence, All grades” value (Part A, 20 mg/m^2 (n=4)) was 0 n (%). For the same compound, the “Vomiting TEAE incidence, G≥3” value (Part A, 20 mg/m^2 (n=4)) was 0 n (%), the “Abdominal pain TEAE incidence, All grades” value (Part A, 40 mg/m^2 (n=3)) was 1 (33.3) n (%) and the “Abdominal pain TEAE incidence, G≥3” value (Part A, 40 mg/m^2 (n=3)) was 0 n (%). The “Constipation TEAE incidence, All grades” value (Part A, 40 mg/m^2 (n=3)) was 0 n (%), the “Constipation TEAE incidence, G≥3” value (Part A, 40 mg/m^2 (n=3)) was 0 n (%) and the “Decreased appetite TEAE incidence, All grades” value (Part A, 40 mg/m^2 (n=3)) was 0 n (%). For the same compound, the “Decreased appetite TEAE incidence, G≥3” value (Part A, 40 mg/m^2 (n=3)) was 0 n (%), the “Fatigue TEAE incidence, All grades” value (Part A, 40 mg/m^2 (n=3)) was 0 n (%) and the “Fatigue TEAE incidence, G≥3” value (Part A, 40 mg/m^2 (n=3)) was 0 n (%). For the same compound, the “Hypokalemia TEAE incidence, All grades” value (Part A, 40 mg/m^2 (n=3)) was 1 (33.3) n (%), the “Hypokalemia TEAE incidence, G≥3” value (Part A, 40 mg/m^2 (n=3)) was 0 n (%) and the “Nausea TEAE incidence, All grades” value (Part A, 40 mg/m^2 (n=3)) was 1 (33.3) n (%). The “Nausea TEAE incidence, G≥3” value (Part A, 40 mg/m^2 (n=3)) was 0 n (%), the “Peripheral edema TEAE incidence, All grades” value (Part A, 40 mg/m^2 (n=3)) was 0 n (%) and the “Peripheral edema TEAE incidence, G≥3” value (Part A, 40 mg/m^2 (n=3)) was 0 n (%). The “Vomiting TEAE incidence, All grades” value (Part A, 40 mg/m^2 (n=3)) was 1 (33.3) n (%), the “Vomiting TEAE incidence, G≥3” value (Part A, 40 mg/m^2 (n=3)) was 0 n (%) and the “Abdominal pain TEAE incidence, All grades” value (Part A, 80 mg/m^2 (n=3)) was 0 n (%). For the same compound, the “Abdominal pain TEAE incidence, G≥3” value (Part A, 80 mg/m^2 (n=3)) was 0 n (%), the “Constipation TEAE incidence, All grades” value (Part A, 80 mg/m^2 (n=3)) was 1 (33.3) n (%) and the “Constipation TEAE incidence, G≥3” value (Part A, 80 mg/m^2 (n=3)) was 0 n (%). The “Decreased appetite TEAE incidence, All grades” value (Part A, 80 mg/m^2 (n=3)) was 0 n (%), the “Decreased appetite TEAE incidence, G≥3” value (Part A, 80 mg/m^2 (n=3)) was 0 n (%) and the “Fatigue TEAE incidence, All grades” value (Part A, 80 mg/m^2 (n=3)) was 0 n (%). The “Fatigue TEAE incidence, G≥3” value (Part A, 80 mg/m^2 (n=3)) was 0 n (%), the “Hypokalemia TEAE incidence, All grades” value (Part A, 80 mg/m^2 (n=3)) was 0 n (%) and the “Hypokalemia TEAE incidence, G≥3” value (Part A, 80 mg/m^2 (n=3)) was 0 n (%). For the same compound, the “Nausea TEAE incidence, All grades” value (Part A, 80 mg/m^2 (n=3)) was 0 n (%), the “Nausea TEAE incidence, G≥3” value (Part A, 80 mg/m^2 (n=3)) was 0 n (%) and the “Peripheral edema TEAE incidence, All grades” value (Part A, 80 mg/m^2 (n=3)) was 1 (33.3) n (%). For the same compound, the “Peripheral edema TEAE incidence, G≥3” value (Part A, 80 mg/m^2 (n=3)) was 0 n (%), the “Vomiting TEAE incidence, All grades” value (Part A, 80 mg/m^2 (n=3)) was 0 n (%) and the “Vomiting TEAE incidence, G≥3” value (Part A, 80 mg/m^2 (n=3)) was 0 n (%). For the same compound, the “Abdominal pain TEAE incidence, All grades” value (Part A, 160 mg/m^2 (n=3)) was 1 (33.3) n (%), the “Abdominal pain TEAE incidence, G≥3” value (Part A, 160 mg/m^2 (n=3)) was 1 (33.3) n (%) and the “Constipation TEAE incidence, All grades” value (Part A, 160 mg/m^2 (n=3)) was 1 (33.3) n (%). For the same compound, the “Constipation TEAE incidence, G≥3” value (Part A, 160 mg/m^2 (n=3)) was 0 n (%), the “Decreased appetite TEAE incidence, All grades” value (Part A, 160 mg/m^2 (n=3)) was 1 (33.3) n (%) and the “Decreased appetite TEAE incidence, G≥3” value (Part A, 160 mg/m^2 (n=3)) was 0 n (%). The “Fatigue TEAE incidence, All grades” value (Part A, 160 mg/m^2 (n=3)) was 1 (33.3) n (%), the “Fatigue TEAE incidence, G≥3” value (Part A, 160 mg/m^2 (n=3)) was 0 n (%) and the “Hypokalemia TEAE incidence, All grades” value (Part A, 160 mg/m^2 (n=3)) was 0 n (%). The “Hypokalemia TEAE incidence, G≥3” value (Part A, 160 mg/m^2 (n=3)) was 0 n (%), the “Nausea TEAE incidence, All grades” value (Part A, 160 mg/m^2 (n=3)) was 1 (33.3) n (%) and the “Nausea TEAE incidence, G≥3” value (Part A, 160 mg/m^2 (n=3)) was 0 n (%). The “Peripheral edema TEAE incidence, All grades” value (Part A, 160 mg/m^2 (n=3)) was 1 (33.3) n (%), the “Peripheral edema TEAE incidence, G≥3” value (Part A, 160 mg/m^2 (n=3)) was 0 n (%) and the “Vomiting TEAE incidence, All grades” value (Part A, 160 mg/m^2 (n=3)) was 1 (33.3) n (%). For the same compound, the “Vomiting TEAE incidence, G≥3” value (Part A, 160 mg/m^2 (n=3)) was 0 n (%), the “Abdominal pain TEAE incidence, All grades” value (Part A, 320 mg/m^2 (n=7)) was 2 (28.6) n (%) and the “Abdominal pain TEAE incidence, G≥3” value (Part A, 320 mg/m^2 (n=7)) was 1 (14.3) n (%). For the same compound, the “Constipation TEAE incidence, All grades” value (Part A, 320 mg/m^2 (n=7)) was 2 (28.6) n (%), the “Constipation TEAE incidence, G≥3” value (Part A, 320 mg/m^2 (n=7)) was 0 n (%) and the “Decreased appetite TEAE incidence, All grades” value (Part A, 320 mg/m^2 (n=7)) was 2 (28.6) n (%). For the same compound, the “Decreased appetite TEAE incidence, G≥3” value (Part A, 320 mg/m^2 (n=7)) was 1 (14.3) n (%) and the “Fatigue TEAE incidence, All grades” value (Part A, 320 mg/m^2 (n=7)) was 3 (42.9) n (%).
